Article PMC9897432 (Proceedings of the National Academy of Sciences of the …, 2022)

How the values were obtained:
[1] = test system: panel of 300 recombinant human kinases; assay type: biochemical; settings: 0.5 µM, panel of 300 kinases
osteoclastogenesis = settings: via off-target actions on M-CSF signaling; cited from earlier work

COc1ccc(N2C(=O)N(c3c(C)cccc3Cl)Cc3cnc(Nc4ccc(C5CCN(C)CC5)cc4OC)nc32)nc1 [YKL-05-099]
S(80): portion of kinases tested inhibited >80% [1]: 43/300 | osteoclast maturation (in words) (osteoclastogenesis): directly blocks osteoclast maturation
